In experiment [1] the test system is GAr-limited antigen presentation. Description: Antigen presentation assay (IL-2 ELISA). It counts as cell-based. Conditions: 5 μM and 10 μM, compared to DMSO-treated cells. How it is done: Stars indicate significant results (the higher the number of stars, the more significant). […]ns[…] stands for not significant.
The aim of this assay was to determine if compounds 2a and 11a were able to interfere (suppress) with the GAr-dependent limitation of EBNA1-derived antigenic peptid presentation. H1299 cells were transfected with 235GAr-OVA or OVA plasmids and murine MHC class I Kb plasmids. T-cell proliferation is determined using ELISA assay for Mouse IL-2 (IL-2 is a potent lymphoid cell growth factor which exerts its biological activity primarily in T cell). There is therefore a correlation between the quantity of IL2 released and the T-cell proliferation.
Quantifications of IL2 release following treatment with compounds 2a or 11a, as compared to DMSO-treated cells are shown in the FIG. 7. […] These compounds thus increase T-cell proliferation.
(In general: An ELISA detects its analyte on a solid surface through an enzyme-linked reagent.)

Experiment [2] relates to GAr-based inhibition of protein expression. Description: SDS-PAGE and western blot of 235GAr-OVA and OVA in transfected H1299 cells. It counts as cell-based. The source says: The aim of these experiments is to assess the effect of the inventive compounds on the GAr-based inhibition of protein expression. For this purpose, H1299 cells were transfected by plasmids allowing expression of either EBNA1 or, as a control EBNA1ΔGAr and then treated, or not by various concentrations of the indicated compounds. […] Compounds able to interfere with GAr-based inhibition of translation will increase the steady state level of EBNA1, whereas a having no effect on EBNA1ΔGAr.
The ratio of the quantity of OVA or GAr-OVA relatively to GAPDH (the loading control) are indicated below the gel.
For orientation: A western blot detects proteins with antibodies after separation by electrophoresis.

The test system of experiment [3] is interaction between NCL and the G4s of EBNA1 mRNA. In words: Proximity ligation assay (PLA) in H1299 cells transfected with EBNA1 plasmids. It is filed as cell-based. The settings on record: 5 μM. The source says: Stars indicate significant results (the higher the number of stars, the more significant).
Experiment [4] concerns quadruplex RNA F-EBNA1-T. In words: FRET-melting assay. It is filed as binding, Epstein-Barr virus. The settings on record: for ΔTm, ligand + 3 μM ds26 / ΔTm, ligand + 10 μM ds26 / ΔTm, ligand alone: F-EBNA1-T 0.2 μM, ligand 1.0 μM, K+10 buffer; for ΔTm, ligand + 3 μM ds26: competitor DNA ds26 3 μM (15 eq); for ΔTm, ligand + 10 μM ds26: competitor DNA ds26 10 μM (50 eq); for ΔTm, ligand alone: no competitor; for affinity for the G-quadruplex structure of EBNA1 (in words, FRET-melting data): conclusion from Table 2. The source says:
The FRET-melting assay is based on thermal denaturation of G4-ARN monitored by fluorescence due to the phenomenon of Förster Resonance Energy Transfer (FRET). This method uses quadruplex-forming RNA sequence dual-labeled with two different fluorophores: a donor (fluorescein, or FAM) and an acceptor (tetramethylrhodamine, or TAMRA). When RNA is folded into G-quadruplex (G4) structure, fluorescence of the donor fluorophore is weak due to strong energy transfer (FRET) to the neighboring acceptor fluorophore. Upon thermal denaturation, the quadruplex unfolds and the fluorophores are separated, leading to decrease of the FRET effect and increase of the fluorescence of the donor (see FIG. 2). By following the fluorescence of the donor as a function of temperature, a melting curve of the G-quadruplex RNA can be obtained, which allows determining the temperature of denaturation at which 50% of the quadruples is unfolded (T1, FIG. 3).
The FRET-melting assay allows assessing the affinity of small molecules (ligands) for the G4-RNA. The addition of a G4-ligand stabilizes the G-quadruplex structure and increases the denaturation temperature. The temperature of denaturation in the presence of ligands (T2) can be compared with that obtained in the absence of ligands (T1). The value of ΔTm (ΔTm=T2−T1) represents a measure of the affinity of the compounds of the invention (ligand). Generally, values of ΔTm>20° C. correspond to ligands of high affinity.
The dual-labeled oligoribonucleotide EBNA1 [5′-FAM-r(GGGGCAGGAGCAGGAGGA)-TAMRA-3′] (SEQ ID no 2) purified by reversed-phase HPLC was purchased from Eurogentec. The donor fluorophore was 6-carboxyfluorescein (FAM) and the acceptor fluorophore was 6-carboxytetramethylrhodamine (TAMRA).
Stock solutions of the ligands (2 mM in DMSO) were used for FRET-melting assay, unless otherwise stated, and were stored at −20° C. FRET-melting measurements are performed on 7900HT Fast Real-Time PCR System (Applied Biosystems) with Microamp Fast optical 96-well reaction plate (Applied Biosystems).
Preparation of Oligonucleotides For FRET-melting assay, oligoribonucleotide F-EBNA1-T was dissolved in K^+10 buffer (10 mM lithium cacodylate buffer, pH 7.3, supplemented with 10 mM KCl and 90 mM LiCl).
Prior to use, all oligonucleotides were pre-treated by heating at 95° C. for 5 min, then rapidly cooled to 4° C. to favor the intramolecular folding by kinetic trapping. Duplex-DNA ds26 (5′CAA-TCG-GAT-CGA-ATT-CGA-TCC-GAT-TG-3′) (SEQ ID no 3) was prepared by heating this self-complementary strand at 90° C. for 5 min in K^+10 buffer followed by a slow cooling over 6 h.
FRET-melting assay is performed in 96-well plates on real time PCR apparatus 7900HT Fast Real-Time PCR System using the heating ramp as follow: 5 min at 25° C., then increase of 0.5° C. every minute until 95° C. Each experimental condition was tested in duplicated in a volume of 25 μL for each sample. The 96-well plates (Applied Biosystems) were prepared by aliquoting the annealed RNA (24 μL of 0.21 μM solution in K^+10 buffer) into each well, followed by 1 μL of ligand solution (25 μM in K^+10 buffer). For competition experiments, duplex competitors were added to 200 nM quadruplex sequences at final concentrations of 3.0 μM (15 eq) and 10.0 μM (50 eq), with a total reaction volume of 25 μL, with the labeled oligoribonucleotide (0.2 μM) and the ligand (1.0 μM). Measurements were made with excitation at 492 nm and detection at 516 nm. The change in the melting temperature in the presence of 1.0 μM putative ligand, ΔTm (1.0 μM), was calculated from at least two experiments by subtraction of the blank from the averaged melting temperature of each compound (1.0 μM).
The results are shown in FIG. 4 and in Table 2 below (higher ΔTm values indicate higher affinity of the compounds to G4-RNA structure of EBNA1).

On to `C[n+]1ccc(C=NNC(=O)c2cccc(C(=O)NN=Cc3cc[n+](C)c4ccccc34)n2)c2ccccc21.[I-].[I-]` [Compound 2a, N′^2, N′^6-Bis[(1-methylquinolinium-4-yl)methylene]pyridine-2,6-dicarbohydrazide iodide], for which, in experiment [1], the “release of IL-2, H1299 cells expressing 235GAr-OVA” value is reported as “significantly increased (two-fold change)” and the “release of IL-2, OVA-expressing cells” value is “no effect”. Besides, in experiment [2] (control without GAr), the OVA expression entry is on record as “no significant effect”. Also, the “steady-state level of 235GAr-OVA” value in experiment [2] (dose-dependent, relative to GAPDH) is on record as “significant increase”. In addition, in experiment [3], the “number of PLA dots and their intensity” value is reported as “significantly reduce”; the “number of nuclear PLA dots per cell” value is on record as “significantly reduced”. Also, in experiment [4], the “ΔTm, ligand + 3 μM ds26” value amounted to 16.1 ± 0.4 °C; the “ΔTm, ligand + 10 μM ds26” value was found to be 14.2 ± 0.7 °C; the “ΔTm, ligand alone” value was 16.4 ± 0.4 °C; the “affinity for the G-quadruplex structure of EBNA1 (in words, FRET-melting data)” value was “particularly high affinity”.

Regarding `C[n+]1ccc(C=NNC(=O)c2ccc3ccc4ccc(C(=O)NN=Cc5cc[n+](C)c6ccccc56)nc4c3n2)c2ccccc21.[I-].[I-]` [Compound 11a, N′^2,N′^9-Bis[(1-methylquinolinium-4-yl)methylene]-1,10-phenanthroline-2,9-dicarbohydrazide iodide], in experiment [1], the “release of IL-2, H1299 cells expressing 235GAr-OVA” value is “significantly increased (two-fold change)” and the “release of IL-2, OVA-expressing cells” value was “no effect”. Also, in experiment [3], the “number of PLA dots and their intensity” value is reported as “significantly reduce”; the “number of nuclear PLA dots per cell” value is “significantly reduced”. Besides, in experiment [4], the “ΔTm, ligand + 3 μM ds26” value came out at 21.1 ± 0.6 °C; the “ΔTm, ligand + 10 μM ds26” value came to 19.3 ± 1.1 °C; the “ΔTm, ligand alone” value turned out to be 21.5 ± 0.2 °C; the “affinity for the G-quadruplex structure of EBNA1 (in words, FRET-melting data)” value is recorded as “particularly high affinity”.
